The text below walks through data of US8354548B2, “Glycine chroman-6-sulfonamides for use as inhibitors of diacylglycerol lipase” (priority 2010, dated 2013).

Like-named read-outs stand apart in the source and are kept apart here.

The target of this assay is T1, LG586 enzyme (Homo sapiens, UniProt Q9Y4D2).
T1 sequence (Q9Y4D2 1-1042): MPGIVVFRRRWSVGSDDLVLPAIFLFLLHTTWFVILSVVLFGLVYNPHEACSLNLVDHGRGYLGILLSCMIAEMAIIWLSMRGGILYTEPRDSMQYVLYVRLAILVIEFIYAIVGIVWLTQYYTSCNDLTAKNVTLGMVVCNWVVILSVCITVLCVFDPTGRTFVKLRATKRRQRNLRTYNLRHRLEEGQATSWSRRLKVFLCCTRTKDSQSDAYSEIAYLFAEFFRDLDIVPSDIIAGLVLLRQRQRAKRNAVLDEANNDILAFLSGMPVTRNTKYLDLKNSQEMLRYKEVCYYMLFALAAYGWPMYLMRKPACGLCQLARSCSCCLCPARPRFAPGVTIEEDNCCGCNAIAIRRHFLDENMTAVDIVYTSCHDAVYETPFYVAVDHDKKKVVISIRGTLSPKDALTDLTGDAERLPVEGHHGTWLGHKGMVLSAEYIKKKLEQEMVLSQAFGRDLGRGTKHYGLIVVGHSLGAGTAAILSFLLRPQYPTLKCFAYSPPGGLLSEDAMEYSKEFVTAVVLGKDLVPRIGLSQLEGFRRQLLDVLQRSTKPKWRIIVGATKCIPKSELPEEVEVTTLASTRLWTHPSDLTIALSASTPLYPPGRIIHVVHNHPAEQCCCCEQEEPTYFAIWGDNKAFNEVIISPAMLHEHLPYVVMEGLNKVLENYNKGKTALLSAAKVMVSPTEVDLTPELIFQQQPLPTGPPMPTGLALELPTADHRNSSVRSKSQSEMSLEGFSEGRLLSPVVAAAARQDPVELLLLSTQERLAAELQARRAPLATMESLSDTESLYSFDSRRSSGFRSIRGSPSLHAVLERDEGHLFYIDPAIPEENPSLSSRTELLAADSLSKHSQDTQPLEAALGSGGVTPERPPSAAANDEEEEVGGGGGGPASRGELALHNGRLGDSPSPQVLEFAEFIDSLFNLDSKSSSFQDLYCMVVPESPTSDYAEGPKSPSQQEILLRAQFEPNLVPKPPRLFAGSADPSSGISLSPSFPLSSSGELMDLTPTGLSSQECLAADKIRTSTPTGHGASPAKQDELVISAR
Format: biochemical. The conditions noted are these: LG586 membrane prep, 250 μM PNP substrate, 10 min preincubation.
Protocol: Black non-binding surface Corning plates (3655) were spotted with 0.9 μL of compound in twenty point 1:3 dilutions. The same volume of dimethyl sulfoxide (DMSO) was added to column 23 of the plate.
A membrane prep from a stable HEK cell line expressing LG586 was prepared by the Cell Resource Group at BMS in Hopewell, N.J. The protein concentration of the membrane prep was 1.28 μg/μL. […] For the assay, membrane was thawed to room temperature and then added to the assay buffer, 100 mM HEPES in MQ water at pH 7.5. The concentration of the LG586 enzyme in the assay is 0.005 μg/mL.
The substrate used in this assay was purchased from Sigma (N9876) p-nitrophenyl butyrate (PNP). The substrate is received in the liquid form and must be diluted with DMSO. […] The final concentration of the substrate is 250 μM.
Enzyme was added to the plates 80 μL/well using a Multi-drop Combi (Thermo). The plates were incubated with the compound for 10 minutes at room temperature. Then 9 μL of substrate was added to each well and the plates were immediately read on the Viewlux Imager (Perkin Elmer) in absorbance mode with the excitation filter of 405 nm and emission filter of 564/250 nm. The read was kinetic, plates were read once every 30 seconds for 5 minutes and then slopes were calculated for each well and the data was reduced with in-house software.

Take “2-(2,2-dimethyl-N-(4-(naphthalen-1-yl)benzyl)chroman-6-sulfonamido)acetic acid [Example 23]”: the IC50 (read-out: Data Range*) was in the range of 2 to 100 nM and the IC50 (read-out: LE_LG586PNP_DR (IC50)) is 3 nM.
